From US20250034165A1, “COMPOUND CONTAINING CYCLOALKYL OR HALOALKYL” (CHIA TAI TIANQING PHARMACEUTICAL GROUP CO., LTD., priority 2021, published 2025)
Read-outs that look alike come from different tables or passages of the source.

Experiments:
EGFR (L858R/T790M/C797S) = EGFR (L858R/T790M/C797S) (Homo sapiens (Human), UniProt P00533, C797S/L858R/T790M); assay: Inhibitory activity for EGFR (L858R/T790M/C797S) kinase; assay type: biochemical; conditions: ATP 5 μM
Experimental: A 50 ng/μL EGFR (L858R/T790M/C797S, BPS) stock solution was diluted with a kinase buffer (50 mM HEPES, 10 mM MgCl2, 2 mM DTT, 1 mM EGTA, 0.01% Tween 20), and 6 μL of 1.67× working solution at 0.00167 ng/μL (final concentration: 0.001 ng/μL) was added to each well. Different compounds dissolved in DMSO were added to wells using a nanoliter pipettor, resulting in the final concentrations of the compounds of 10 nM to 0.0024 nM (4-fold gradient, 7 concentrations in total), and blank control wells (without enzyme) and negative control wells (with enzyme, plus vehicle DMSO) were set, 2 replicate wells for each concentration. After enzyme was reacted with the compound or vehicle for 30 min, 5×ATP at 25 μM (final concentration: 5 μM, Sigma) prepared with a kinase buffer was mixed with 5× substrate at 0.5 μM (final concentration: 0.1 μM, ULight-poly GT, PerkinElmer) at a ratio of 1:1 (v:v), and the mixture was added to each well at 4 μL/well. After being sealed with a film, the plate was incubated at room temperature for 2 h, and then 5 μL of 4×EDTA at 40 mM (final concentration: 10 mM) was added to each well. After the plate was incubated for 5 min at room temperature, 5 μL of 4× detection reagent at 8 nM (final concentration: 2 nM, Eu-anti-phospho-tyrosine antibody, PerkinElmer) was added to each well. After being incubated at room temperature for 1 h, the plate was read using a PerkinElmer Envision multi-mode microplate reader (excitation: 320 nm, emission: 665 nm), and IC50 was calculated by four-parameter fitting.

EGFR (WT) = EGFR (WT) (Homo sapiens (Human), UniProt P00533); assay: Inhibitory activity for EGFR (WT) kinase; assay type: biochemical; conditions: ATP 5 μM
Experimental: A 50 ng/μL EGFR (WT, Carna) stock solution was diluted with a kinase buffer (50 mM HEPES, 10 mM MgCl2, 2 mM DTT, 1 mM EGTA, 0.01% Tween 20), and 6 μL of 1.67× working solution at 0.005 ng/μL (final concentration: 0.003 ng/μL) was added to each well. Different compounds dissolved in DMSO were added to the wells using a nanoliter pipettor, resulting in the final concentrations of the compounds of 100 nM to 0.0244 nM (4-fold gradient for 7 concentrations in total), and blank control wells (without enzyme) and negative control wells (with enzyme, plus vehicle DMSO) were set, 2 replicate wells for each concentration. After enzyme was reacted with the compound or vehicle for 30 min, 5×ATP at 25 μM (final concentration: 5 μM, Sigma) prepared with a kinase buffer was mixed with 5× substrate at 0.5 μM (final concentration: 0.1 μM, ULight-poly GT, PerkinElmer) at a ratio of 1:1 (v:v), and the mixture was added to each well at 4 μL/well. After being sealed with a film, the plate was incubated at room temperature for 2 h, and then 5 μL of 4×EDTA at 40 mM (final concentration: 10 mM) was added to each well. After the plate was incubated for 5 min at room temperature, 5 μL of 4× detection reagent at 8 nM (final concentration: 2 nM, Eu-anti-phospho-tyrosine antibody, PerkinElmer) was added to each well. After being incubated at room temperature for 1 h, the plate was read using a PerkinElmer Envision multi-mode microplate reader (excitation: 320 nm, emission: 665 nm), and IC50 was calculated by four-parameter fitting.

[1] = system: BAF3-EGFR (del19/T790M/C797S) cells; assay: Inhibition of proliferation of BAF3-EGFR (Del19/T790M/C797S) cells, CCK-8; assay type: cell-based; conditions: 72 h, read-out: BAF3(EGFR T790M Del19 C797S) cell inhibitory activity IC50
Summary of the method: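 Cells seeded at 1.0×10^5 cells/mL in RPMI + 10% FBS, cultured overnight at 37° C, 5% CO2, then compound added in duplicate wells, with untreated cells as negative control. Inhibition rate calculated against negative-control and blank means. IC50 obtained from four-parameter fit of inhibition versus log concentration.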

[2] = In vivo pharmacokinetics in ICR mice; conditions: for MRT last: read-out: MRT(0-t); for half-life: read-out: T½ (converted); for bioavailability: 10 mg/kg
Summary of the method: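 ICR mice (18–20 g, 9 per group, fasted 12 h) received 10 mg/kg of compound intragastrically. Orbital blood was taken from 0 min to 24 h and EDTA-K2 plasma was prepared. Plasma was precipitated with acetonitrile containing diazepam as internal standard and analysed by LC/MS/MS.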

[3] = mouse, plasma, 1 mg/kg, IV, read-out: AUC(0-t)
[4] = mouse, plasma, PO, 10 mg/kg intragastric
[5] = mouse, plasma, PO, 10 mg/kg intragastric, read-out: AUC(0-t)
[6] = mouse, plasma, PO, 10 mg/kg intragastric, read-out: Cmax
[7] = mouse, plasma, PO, 10 mg/kg intragastric, read-out: Tmax

Chain of EGFR (WT) (P00533 25-1210): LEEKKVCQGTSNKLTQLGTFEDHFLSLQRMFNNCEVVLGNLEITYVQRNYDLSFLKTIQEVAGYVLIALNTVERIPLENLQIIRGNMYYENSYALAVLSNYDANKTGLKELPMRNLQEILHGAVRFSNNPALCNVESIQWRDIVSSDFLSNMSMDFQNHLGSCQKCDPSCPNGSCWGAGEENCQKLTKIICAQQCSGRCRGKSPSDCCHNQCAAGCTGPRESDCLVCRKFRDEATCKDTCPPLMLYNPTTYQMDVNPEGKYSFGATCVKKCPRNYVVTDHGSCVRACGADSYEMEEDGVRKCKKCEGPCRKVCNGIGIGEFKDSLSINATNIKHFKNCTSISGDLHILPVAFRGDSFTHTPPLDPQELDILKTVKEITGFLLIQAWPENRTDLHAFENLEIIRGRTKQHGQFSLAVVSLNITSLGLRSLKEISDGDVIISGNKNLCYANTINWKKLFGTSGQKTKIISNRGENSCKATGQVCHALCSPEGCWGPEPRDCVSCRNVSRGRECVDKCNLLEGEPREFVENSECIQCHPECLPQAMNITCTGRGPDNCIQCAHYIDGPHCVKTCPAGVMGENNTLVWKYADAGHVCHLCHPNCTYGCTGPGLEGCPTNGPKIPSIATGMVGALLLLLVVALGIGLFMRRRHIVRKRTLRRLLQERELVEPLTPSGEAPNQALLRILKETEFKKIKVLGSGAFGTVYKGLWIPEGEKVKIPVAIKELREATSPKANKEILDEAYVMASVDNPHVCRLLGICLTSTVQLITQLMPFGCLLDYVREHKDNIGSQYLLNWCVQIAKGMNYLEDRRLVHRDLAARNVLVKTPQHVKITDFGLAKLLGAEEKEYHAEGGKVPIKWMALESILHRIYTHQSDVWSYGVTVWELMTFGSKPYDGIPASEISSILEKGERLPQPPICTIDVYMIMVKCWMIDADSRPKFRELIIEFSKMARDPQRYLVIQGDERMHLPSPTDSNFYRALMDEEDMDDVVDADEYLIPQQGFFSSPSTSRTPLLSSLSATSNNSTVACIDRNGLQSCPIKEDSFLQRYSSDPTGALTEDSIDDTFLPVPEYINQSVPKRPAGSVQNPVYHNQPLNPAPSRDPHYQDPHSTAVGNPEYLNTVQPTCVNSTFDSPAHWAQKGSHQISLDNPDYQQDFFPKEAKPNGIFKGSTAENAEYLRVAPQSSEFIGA
Chain of EGFR (L858R/T790M/C797S) (P00533 25-1210 T790M/C797S/L858R): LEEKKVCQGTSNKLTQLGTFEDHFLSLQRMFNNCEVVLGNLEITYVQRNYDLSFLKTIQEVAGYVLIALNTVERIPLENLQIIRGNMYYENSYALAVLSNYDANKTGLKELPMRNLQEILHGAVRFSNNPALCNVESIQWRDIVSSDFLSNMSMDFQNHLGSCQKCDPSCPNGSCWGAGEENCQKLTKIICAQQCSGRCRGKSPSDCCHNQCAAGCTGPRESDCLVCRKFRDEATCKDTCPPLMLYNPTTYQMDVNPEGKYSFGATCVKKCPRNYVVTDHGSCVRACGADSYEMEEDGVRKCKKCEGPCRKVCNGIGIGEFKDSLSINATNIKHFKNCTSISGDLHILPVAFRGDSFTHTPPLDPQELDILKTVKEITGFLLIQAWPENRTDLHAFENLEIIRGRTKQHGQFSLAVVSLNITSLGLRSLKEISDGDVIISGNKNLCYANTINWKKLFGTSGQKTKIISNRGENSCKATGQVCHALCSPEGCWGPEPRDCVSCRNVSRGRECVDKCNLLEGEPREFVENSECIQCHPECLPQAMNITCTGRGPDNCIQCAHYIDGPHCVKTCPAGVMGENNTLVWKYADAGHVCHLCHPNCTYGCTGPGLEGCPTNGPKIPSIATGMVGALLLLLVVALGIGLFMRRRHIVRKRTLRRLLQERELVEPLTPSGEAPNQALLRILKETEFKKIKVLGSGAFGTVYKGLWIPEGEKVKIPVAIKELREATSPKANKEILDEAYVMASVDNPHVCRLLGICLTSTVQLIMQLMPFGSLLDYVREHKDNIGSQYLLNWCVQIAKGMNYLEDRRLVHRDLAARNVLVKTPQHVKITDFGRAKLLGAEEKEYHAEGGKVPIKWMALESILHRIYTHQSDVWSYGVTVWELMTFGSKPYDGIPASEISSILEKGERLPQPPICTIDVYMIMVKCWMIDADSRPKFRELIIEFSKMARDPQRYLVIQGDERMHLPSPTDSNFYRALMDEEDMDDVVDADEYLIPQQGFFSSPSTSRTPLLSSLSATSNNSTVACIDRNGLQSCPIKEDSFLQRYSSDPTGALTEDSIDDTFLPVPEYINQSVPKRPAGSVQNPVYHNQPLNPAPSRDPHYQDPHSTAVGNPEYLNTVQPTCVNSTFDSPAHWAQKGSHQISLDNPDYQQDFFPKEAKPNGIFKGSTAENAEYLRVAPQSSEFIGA

For `C[C@H](Nc1ccc2c(c1)N/C1=N\C(=O)c3cc(F)nc(c3)-c3cnn(C)c3OCCC[C@@H](C3CC3)CN12)C(F)(F)F` [Example 9], the IC50 (EGFR (L858R/T790M/C797S)) was 0.5 nM and the IC50 (EGFR (WT)) was 0.56 nM.

Work on `Cc1cc2cc(n1)-c1cnn(C)c1OCCC[C@@H](C1CC1)CN1/C(=N/C2=O)Nc2ccc(C=CCCN(C)C)cc21` [Example 24] yielded an IC50 (EGFR (L858R/T790M/C797S)) of 0.02 nM and an IC50 (EGFR (WT)) of 1.1 nM.

`Cc1cc2cc(n1)-c1cnn(C)c1OCCC[C@@H](C1CC1)CN1/C(=N/C2=O)Nc2cc(N[C@H]3CC[C@H](N(C)C)CC3)ccc21` [Example 25] showed an IC50 (EGFR (L858R/T790M/C797S)) of 0.014 nM, an IC50 [1] of under 1 nM and an IC50 (EGFR (WT)) of 0.049 nM.

Molecule `Cc1cc2cc(n1)-c1cnn(C)c1OCCC[C@@H](C1CC1)CN1/C(=N/C2=O)Nc2cc(N[C@H]3CC[C@@H](N(C)C)CC3)ccc21` [Example 26] has an IC50 (EGFR (L858R/T790M/C797S)) of 0.017 nM, an IC50 [1] of under 1 nM and an IC50 (EGFR (WT)) of 0.24 nM.

With `Cc1cc2cc(n1)-c1cnn(C)c1OCCC[C@@H](C1CC1)CN1/C(=N/C2=O)Nc2ccc(NCCN(C)C)cc21` [Example 28] the IC50 ([1]; Ba/F3 EGFR-Del19/T790M/C797S) was under 1 nM, the CLz ([2]; IV) was 48.8 mL/min/kg and the AUC(0-inf) ([2]; mouse, plasma, 1 mg/kg, IV) was 341 ng·h/mL. For the same molecule, the AUC(0-t) [2, 3] was 336 ng·h/mL, the MRT last ([2]; mouse, plasma, 1 mg/kg, IV) was 3.96 h and the half-life ([2]; mouse, plasma, 1 mg/kg, IV) was 4.64 h. For the same molecule, the bioavailability ([2]; mouse, plasma, PO vs IV) was 27.9%, the AUC(0-inf) [2, 4] was 965 ng·h/mL and the AUC(0-t) [2, 5] was 938 ng·h/mL. It also gave a Cmax [2, 6] of 74.5 ng/mL, an MRT last [2, 4] of 7.72 h and a Tmax [2, 7] of 6 h. It also gave a half-life [2, 4] of 4.29 h.

`Cc1cc2cc(n1)-c1cnn(C)c1OCCC[C@@H](C1CC1)CN1/C(=N/C2=O)Nc2cc(NC3(C)COC3)ccc21` [Example 29] showed an IC50 ([1]; Ba/F3 EGFR-Del19/T790M/C797S) of under 1 nM, a CLz ([2]; IV) of 19.7 mL/min/kg and an AUC(0-inf) ([2]; mouse, plasma, 1 mg/kg, IV) of 850 ng·h/mL. The AUC(0-t) [2, 3] was 845 ng·h/mL, the MRT last ([2]; mouse, plasma, 1 mg/kg, IV) was 1.1 h and the half-life ([2]; mouse, plasma, 1 mg/kg, IV) was 1.65 h. The bioavailability ([2]; mouse, plasma, PO vs IV) was 42.9%, the AUC(0-inf) [2, 4] was 3640 ng·h/mL and the AUC(0-t) [2, 5] was 3620 ng·h/mL. For the same molecule, the Cmax [2, 6] was 553 ng/mL, the MRT last [2, 4] was 5.99 h and the Tmax [2, 7] was 0.5 h. The half-life [2, 4] was 3.06 h.

In the case of `Cc1cc2cc(n1)-c1cnn(C)c1OCCC[C@@H](C1CC1)CN1/C(=N/C2=O)Nc2cc(N[C@H](C)C3COC3)ccc21` [Example 39], the IC50 (EGFR (L858R/T790M/C797S)) is reported as 0.027 nM, the IC50 [1] is reported as under 1 nM and the “AUC(0-t)” value ([2]; IV) is reported as 261 ng·h/mL. The “AUC(0-∞)” value ([2]; IV) was 262 ng·h/mL, the CLz ([2]; IV) was 63.5 mL/min/kg and the “MRT(0-t)” value ([2]; IV) was 0.61 h. The T½ ([2]; IV) was 1.74 h, the “F (%)” value ([2]; PO vs IV) was 118.35% and the “AUC(0-t)” value ([2]; PO, 10 mg/kg intragastric) was 3093 ng·h/mL. For the same molecule, the “AUC(0-∞)” value ([2]; PO, 10 mg/kg intragastric) was 3096 ng·h/mL, the Cmax ([2]; PO, 10 mg/kg intragastric) was 488 ng/mL and the “MRT(0-t)” value ([2]; PO, 10 mg/kg intragastric) was 3.84 h. For the same molecule, the Tmax ([2]; PO, 10 mg/kg intragastric) was 0.50 h, the T½ ([2]; PO, 10 mg/kg intragastric) was 2.33 h and the IC50 (EGFR (WT)) was 0.61 nM.

Work on `Cc1cc2cc(n1)-c1cnn(C)c1OC[C@H](C1CC1)CCCn1c(nc3ccc(NC4COC4)cc31)NC2=O` [Example 59] yielded an IC50 (EGFR (L858R/T790M/C797S)) of 0.085 nM and an IC50 (EGFR (WT)) of 5.9 nM.

Molecule `Cc1cc2cc(n1)-c1cnn(C)c1OC[C@H](C1CC1)CCCn1c(nc3cc(NC4COC4)ccc31)NC2=O` [Example 60] has an IC50 (EGFR (L858R/T790M/C797S)) of 0.081 nM and an IC50 (EGFR (WT)) of 8 nM.

Molecule `Cc1cc2cc(n1)-c1cnn(C)c1OCCC[C@@H](C1CC1)CN1/C(=N/C2=O)Nc2cc(NC3(C(F)(F)F)COC3)ccc21` [Example 88] has an IC50 (EGFR (L858R/T790M/C797S)) of 0.177 nM and an IC50 (EGFR (WT)) of 6 nM.
